Results on one molecule are retold here after patent US8795734B2, “Hydrophobic nanotubes and nanoparticles as transporters for the delivery of drugs into cells” (The Board of Trustees of the Leland Stanford Junior …, priority 2005, dated 2014).

The subject of one assay is 4188 cells. The assay can be described thus: Cell density, cell death and proliferation of lymphoma cells after c-myc siRNA delivery. It is filed as cell-based, mice. Particulars: approximately 24 h treatment, light microscopy. The method, then:
These conjugates were used to treat T-cell lymphoma cells, 4188 cells, which were derived from mice overexpressing human myc. Control experiments were also performed where the 4188 cells were exposed to a mixture of SWNT and siRNAmyc (no covalent linkage), to lipofectamine-siRNAmyc complex or to the antibiotic doxicycline (DOX). The 4188 cells used in this experiment had been previously engineered to be tet-regulatable such that the myc gene can be turned off by treatment with DOX.
The 4188 cells are non-adherent cells, typically cultured in RPMI 1640 medium supplemented with fetal bovine serum, penicillin/streptomycin and betamercaptoethanol. The cells were engineered to have tet-regulatable MYC, which can be regulated by the antibiotic doxicycline (DOX). 4188 cells are further described at Jain, M. et al. Sustained loss of a neoplastic phenotype by brief inactivation of MYC. Science 297, 102-104 (2002). […]
The cell proliferation was determined by using the CellTiterA96 assay (Promega). […]
Cell death was monitored in the cells by cell cytometry. […]

The test system of the next assay is myc. The assay can be described thus: Western blot of myc after c-myc siRNA delivery in 4188 cells. It is filed as cell-based. The procedure: Typical incubations were carried out by incubating 4188 cells with the NT conjugates for periods ranging from 12-14 h at 37° C. and 5% CO2 atmosphere. In addition to our positive incubation with our disulfide containing conjugate, SWNT-SS-siRNAmyc (typical [NT} ≈20 nM and [siRNA] ≈500 nM in incubation), control incubations were also carried out with DOX at a concentration 2 ng/mL, commercially available transfecting agent lipofectamine-myc complex and finally with a mixture of SWNT suspension and myc siRNA solution.
The proliferation of the cells was also examined by the use of a colorimetric MTS-based assay. […] In order to verify that the decrease in cell viability and proliferation was in fact a result of the knockdown of myc in the lymphoma cells, western blots were performed on the respective cellysates. The myc band was absent for the SWNT-SS-siRNAmyc and DOX treated cell.
For orientation: A western blot detects proteins with antibodies after separation by electrophoresis.

On to `C[C@H]1c2cccc(O)c2C(O)=C2C(=O)[C@]3(O)C(O)=C(C(N)=O)C(=O)[C@@H](N(C)C)[C@@H]3[C@@H](O)[C@@H]21` [DOX, doxicycline], for which the cell density result with 4188 cells is given as “some reduction in the cell density”. In the assay on myc, the “myc band in western blot” value is “absent”.
